Test results: article PMC8439235, “High-yield synthesis and purification of recombinant human GABA transaminase for high-throughput screening assays” (Journal of Enzyme Inhibition and Medicinal Chemistry, 2021)
Read-outs that look alike come from different tables or passages of the source.

Assays:
recombinant human GABA-T = target: T1, recombinant human GABA-T (Homo sapiens, UniProt P80404); assay: GABA-T inhibition assay, coupled with SSADH, NADPH absorbance at 340 nm (Mixture C); type: biochemical; conditions: for IC50: IC50 for human GABA-T, 10 min preincubation, 25 °C, pH 8.6, 200 µM GABA
T1 construct: made in house; host or cells: Expi293F human cells, transient transfection
T1 sequence (P80404 29-500): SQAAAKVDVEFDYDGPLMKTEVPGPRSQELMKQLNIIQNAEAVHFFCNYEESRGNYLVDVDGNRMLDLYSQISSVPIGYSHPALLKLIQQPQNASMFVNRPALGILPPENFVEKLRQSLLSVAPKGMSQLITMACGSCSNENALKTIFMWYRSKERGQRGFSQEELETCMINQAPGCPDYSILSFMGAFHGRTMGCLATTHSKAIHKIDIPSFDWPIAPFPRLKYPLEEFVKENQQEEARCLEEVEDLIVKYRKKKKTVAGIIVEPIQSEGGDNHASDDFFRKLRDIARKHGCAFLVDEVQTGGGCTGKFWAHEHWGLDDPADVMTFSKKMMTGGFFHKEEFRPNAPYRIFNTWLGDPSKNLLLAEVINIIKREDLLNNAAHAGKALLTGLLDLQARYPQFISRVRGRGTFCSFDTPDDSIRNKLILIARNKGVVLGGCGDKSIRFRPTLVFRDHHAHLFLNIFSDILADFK
Method: (§1) All test samples were prepared at a final volume of 200 µl/well in a 96-well plate with a clear flat bottom, and the enzyme reaction was carried out at 25 °C. The final solution of the assay in Figure 3(B) consisted of SSA (0, 12.5, 25, 50, 100, and 200 µM), 2.5 mM β-NADP^+, 1 mM 2-mercaptoethanol (2-ME), and SSADH (from 20 µL of 1 U/mL gabaculine-treated GABase) in 50 mM K4P2O7 buffer (pH 8.6). The final solution of the assay in Figure 3(C) consisted of GABA (0, 100 and 200 µM), 2.5 mM β-NADP^+, 5 mM α-KG, 1 mM 2-ME and each enzymatic mixture (Mixture A: 10 µL of 1 U/mL GABase; Mixture B: 10 µL of 1 U/mL gabaculine-treated GABase; Mixture C: 2 µg of human GABA-T mixed with 10 µL of 1 U/mL gabaculine-treated GABase) in 50 mM K4P2O7 buffer at pH 8.6. The final solution of the assay in Figure 3(D) consisted of 200 µM GABA, 2.5 mM β-NADP^+, 5 mM α-KG, 1 mM 2-ME, SSADH (from Mixture B) and human GABA-T at various concentrations (0.156, 0.313, 0.625, 1.25, 2.5, 5, and 10 µg/mL) in 50 mM K4P2O7 buffer at pH 8.6. […] The final solution of the assay in Figure 4(A) consisted of gabaculine (0, 15.63, 31.25, 62.5, 125, 250, 500, and 1000 nM), 200 µM GABA, 2.5 mM β-NADP^+, 5 mM α-KG, and each enzymatic mixture (A or C) in 50 mM K4P2O7 buffer (pH 8.6) containing or not containing 1 mM 2-ME. […] The change in 340 nm absorbance at 25 °C caused by the conversion of NADP^+ to NADPH, which is proportional to GABA-T activity, was recorded every 4 min kinetically with SpectraMax iD5 Multi-Mode Microplate Reader (Molecular Devices). GABA-T activity was calculated during the linear phase of the reaction, corrected for background from blanks. All experiments were performed in triplicate and data were presented as mean ± SEM (Standard Error of Mean) or each replicate. Data plotting and regression analysis were performed with GraphPad Prism software (Version 9.1.2, GraphPad Software).

bacterial GABA-T = target: T2, bacterial GABA-T (Pseudomonas fluorescens, UniProt Q4KKA1); assay: GABA-T inhibition assay with GABase, NADPH absorbance at 340 nm (Mixture A); type: biochemical; conditions: for IC50: 10 min preincubation, 25 °C, pH 8.6, 200 µM GABA
T2 sequence (Q4KKA1 1-425): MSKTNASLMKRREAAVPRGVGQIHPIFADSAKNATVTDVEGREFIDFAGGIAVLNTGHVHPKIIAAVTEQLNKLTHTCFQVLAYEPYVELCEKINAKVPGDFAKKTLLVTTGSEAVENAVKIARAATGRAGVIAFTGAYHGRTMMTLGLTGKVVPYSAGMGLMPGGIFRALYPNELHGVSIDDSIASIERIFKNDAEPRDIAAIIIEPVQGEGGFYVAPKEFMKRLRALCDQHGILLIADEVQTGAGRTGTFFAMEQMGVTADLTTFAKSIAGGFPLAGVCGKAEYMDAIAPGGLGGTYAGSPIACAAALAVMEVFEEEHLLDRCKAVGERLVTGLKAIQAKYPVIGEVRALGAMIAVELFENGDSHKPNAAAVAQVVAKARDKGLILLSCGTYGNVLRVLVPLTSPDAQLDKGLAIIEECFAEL
Description: GABase (Merck, G7509) is a convenient and inexpensive source of SSADH, as it is a commercially available mixture composed of bacterial GABA-T and SSADH obtained from Pseudomonas fluorescens. However, GABase was not able to be used directly in our human GABA-T assay due to the presence of bacterial GABA-T. So we used the bacterial SSADH isolation method as previously described, which allowed large amounts of bacterial SSADH to be isolated quickly and conveniently from GABase by irreversibly inhibiting the bacterial GABA-T activity. Five milligrams of gabaculine (Santa Cruz Biotechnology, sc-200473), a naturally occurring GABA-T irreversible inhibitor, was added to 25 ml of 1 U/mL GABase solution (reconstituted with 50 mM K4P2O7 buffer at pH 8.6), followed by maintaining the reaction at 4 °C for 30 min. The residual gabaculine, which also can inactivate recombinant human GABA-T, was eliminated by dialysis at 4 °C with 2 L of K4P2O7 buffer, changed 3 times per 9 h followed by the final dialysis overnight. The isolated bacterial SSADH was stored at −80 °C for long-term storage.
as §1

SMILES | IC50 (recombinant human GABA-T; absence of 2-ME (homodimeric/multimeric form)) | IC50 (recombinant human GABA-T; presence of 1 mM 2-ME (monomeric form)) | GABA degradation-dependent NADPH synthesis in GABase after treatment (bacterial GABA-T; 5 mg gabaculine in 25 ml of 1 U/mL GABase, 4 °C, 30 min, then dialysis, GABA 0, 100, 200 µM) | IC50 (bacterial GABA-T; IC50 for bacterial GABA-T, absence of 2-ME (multimeric form)) | IC50 (bacterial GABA-T; IC50 for bacterial GABA-T, presence of 1 mM 2-ME (monomeric form)) | difference in sensitivity, human vs bacterial GABA-T (recombinant human GABA-T; with 2-ME, monomeric form) | difference in sensitivity, human vs bacterial GABA-T (recombinant human GABA-T; without 2-ME, human homodimeric vs bacterial multimeric form) | IC50 (bacterial GABA-T; absence of 2-ME (multimeric form), read-out: IC50 for bacterial GABA-T) | IC50 (bacterial GABA-T; presence of 1 mM 2-ME (monomeric form), read-out: IC50 for bacterial GABA-T)
NC1C=CC=C(C(=O)O)C1 (stereo not drawn) [gabaculine] | 220 nM | 120 nM | completely impaired | 0.19 µM | 0.13 µM |  |  |  | 
C=CC(N)CCC(=O)O (stereo not drawn) [vigabatrin] |  |  |  |  |  | 202 fold | 70 fold | 631 µM | 14200 µM
